# What was measured:
# 5-lipoxygenase [1] = target: T1, 5-lipoxygenase (Rattus norvegicus, UniProt P12527); assay: 5-Lipoxygenase inhibiting activity (Test Example 2, [14C]-arachidonic acid, TLC); type: biochemical; settings: RBL-1 cells as enzyme source; 27 μM [14C]-arachidonic acid; pH 7.4; 37° C., 5 min; TLC/scintillation; read-out: Inhibitory Activity IC50, 5-Lipoxygenase
# T1 construct: rat basophilic leukemia cells (RBL-1, ATCC No. CRL 1378) were used as the 5-lipoxygenase source; endogenous in cells; host or cells: RBL-1 (rat basophilic leukemia, ATCC CRL 1378)
# T1 sequence (P12527 1-673): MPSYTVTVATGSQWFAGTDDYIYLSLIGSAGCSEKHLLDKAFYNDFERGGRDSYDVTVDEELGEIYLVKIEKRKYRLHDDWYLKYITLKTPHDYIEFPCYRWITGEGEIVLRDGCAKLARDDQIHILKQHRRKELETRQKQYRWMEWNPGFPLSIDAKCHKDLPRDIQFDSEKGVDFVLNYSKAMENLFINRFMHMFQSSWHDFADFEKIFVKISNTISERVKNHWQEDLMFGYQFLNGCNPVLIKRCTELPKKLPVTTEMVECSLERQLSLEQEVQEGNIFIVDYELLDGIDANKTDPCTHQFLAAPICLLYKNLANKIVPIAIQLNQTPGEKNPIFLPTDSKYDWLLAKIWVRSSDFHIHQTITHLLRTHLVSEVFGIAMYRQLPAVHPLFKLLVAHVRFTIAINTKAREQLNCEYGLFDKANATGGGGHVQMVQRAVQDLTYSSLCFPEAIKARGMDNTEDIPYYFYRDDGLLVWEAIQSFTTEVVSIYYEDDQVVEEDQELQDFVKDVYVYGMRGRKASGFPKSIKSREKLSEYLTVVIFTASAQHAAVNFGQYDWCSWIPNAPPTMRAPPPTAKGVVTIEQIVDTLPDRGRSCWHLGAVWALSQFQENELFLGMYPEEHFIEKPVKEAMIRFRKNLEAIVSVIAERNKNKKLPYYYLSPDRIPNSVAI
# Experimental: The compounds listed in Table 3 were tested for their lipoxygenase inhibiting activity by the following methods:
# (a') 5-Lipoxygenase inhibiting activity
# Essentially, the same method described in the above (a) was used. Thus, rat basophilic leukemia cells (RBL-1, ATCC No. CRL 1378) were used as the 5-lipoxygenase source. These cells were contacted with the test compound in 30 μl of 0.17 M Tris-hydrochloride buffer (pH 7.4) containing […] calcium chloride, 3.3 mM adenosine triphosphate and 1 mM glutathione at 37° C. for 5 minutes. Then, 25 μl of 27 μM [^14 C]-arachidonic acid was added and the enzymatic reaction was allowed to proceed at 37° C. for 5 minutes. To the reaction mixture was added 50 μl of ethyl acetate/methanol/0.2 M citric acid (30/4/1), and the whole mixture was stirred. The reaction product extracted into the ethyl acetate layer was separated by silica gel thin layer chromatography [Merck Art 5631: developing solvent; petroleum ether/ethyl ether/acetic acid (50/50/1)]. The site of the product [^14 C]-5-hydroxy-6,8,11,14-eicosatetraenoic acid was detected by autoradiography, the gel portion corresponding to the site was scraped off and assayed for ^14 C using a liquid scintillation counter, and the yield of the product was determined.
# 12-lipoxygenase [2] = target: T2, 12-lipoxygenase (Bos taurus, UniProt F1MFA8); assay: Platelet 12-lipoxygenase inhibiting activity (Test Example 2, [14C]-arachidonic acid, TLC); type: biochemical; settings: bovine platelet-derived preparation; 20 μM [14C]-arachidonic acid; pH 7.4; 30° C., 10 min; TLC/scintillation; read-out: Inhibitory Activity IC50, 12-Lipoxygenase
# T2 construct: a bovine platelet-derived preparation was used as the 12-lipoxygenase source; from tissue; host or cells: bovine platelets
# T2 sequence (F1MFA8 1-663): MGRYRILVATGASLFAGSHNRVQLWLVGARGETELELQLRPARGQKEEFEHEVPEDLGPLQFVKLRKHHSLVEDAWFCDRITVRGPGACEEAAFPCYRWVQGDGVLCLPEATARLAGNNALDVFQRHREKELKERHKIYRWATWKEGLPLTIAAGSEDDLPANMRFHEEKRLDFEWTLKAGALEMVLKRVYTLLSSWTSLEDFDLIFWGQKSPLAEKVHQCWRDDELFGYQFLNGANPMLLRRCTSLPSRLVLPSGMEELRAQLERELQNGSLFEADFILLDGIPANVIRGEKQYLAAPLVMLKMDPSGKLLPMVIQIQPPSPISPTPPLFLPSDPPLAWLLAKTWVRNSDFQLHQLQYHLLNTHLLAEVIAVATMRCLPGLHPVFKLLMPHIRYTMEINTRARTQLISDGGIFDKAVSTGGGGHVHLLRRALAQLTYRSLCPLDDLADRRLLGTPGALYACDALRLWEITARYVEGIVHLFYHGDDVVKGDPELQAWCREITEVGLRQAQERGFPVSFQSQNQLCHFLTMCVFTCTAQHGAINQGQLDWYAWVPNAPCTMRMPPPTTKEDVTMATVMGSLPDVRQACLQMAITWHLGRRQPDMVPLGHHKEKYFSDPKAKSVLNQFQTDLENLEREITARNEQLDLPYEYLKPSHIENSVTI
# lipoxygenase = settings: known compounds; cited from earlier work
# [3] = literature; cited from earlier work
# 5-lipoxygenase [4] = target: T1, 5-lipoxygenase; assay: Leukocyte 5-lipoxygenase inhibiting activity (Test Example 1, HPLC determination of 5-HETE); type: biochemical; settings: RBL-1 cells as enzyme source; 60 μM arachidonic acid; pH 7.4; 37° C., 5 min; HPLC of 5-HETE; read-out: Inhibitory Activity IC50, 5-Lipoxygenase
# Experimental: (§1) The compounds listed in Table 2 were tested in vitro for their lipoxygenase inhibiting activity in the following manner: a) Leukocyte 5-lipoxygenase inhibiting activity
# The method of B.A. Jakschik et al. Biochem. Biophys. Res. Commun., 95, 103 (1980) was modified. Thus, rat basophilic leukemia cells (RBL-1, ATCC No. CRL 1378) were used as the 5-lipoxygenase source. These cells were brought into contact with the test compound in 60 μl of 0.17 M Tris-hydrochloride buffer (pH 7.4) containing […], 3.3 mM adenosine triphosphate and 1 mM glutathione at 37° C. for 5 minutes, then 50 μl of 60 μM arachidonic acid was added and the enzymatic reaction was allowed to proceed at 37° C. for 5 minutes. Thereafter, 200 μl of methanol and 13-hydroxylinolic acid (internal standard) were added. After sufficient shaking, the mixture was allowed to stand at -20° C. for 30 minutes and then centrifuged for 10 minutes (12,000 revolutions per minute) to collect the supernatant. The supernatant was evaporated to dryness under a nitrogen gas stream. To the residue was added 200 μl of 75% aqueous methanol and 100 μl of the resultant solution was subjected to high performance liquid chromatography for the determination of 5-HETE (5-hydroxyeicosatetraenoic acid). 5-HETE was assayed on the basis of the absorption at 234 nm as measured by ultraviolet absorption monitoring. The yield of 5-HETE was calculated from the peak area corrected in comparison with the peak of the internal standard. […] (b) Platelet 12-lipoxygenase inhibiting activity
# 12-lipoxygenase [5] = target: T2, 12-lipoxygenase; assay: Platelet 12-lipoxygenase inhibiting activity (Test Example 1, HPLC determination of 12-HETE); type: biochemical; settings: bovine platelet-derived preparation; 60 μM arachidonic acid; pH 7.4; 30° C., 10 min; HPLC of 12-HETE; read-out: Inhibitory Activity IC50, 12-Lipoxygenase
# Experimental: as §1
# The method of D.H. Nugtern et al. Biochem. Biophys. Acta, 380, 299 (1975) was modified. Thus, a bovine platelet-derived preparation was used as the 12-lipoxygenase source. This enzyme preparation and the test compound were brought into contact with each other in 60 μl of 0.17 M Tris-hydrochloride buffer (pH 7.4) at 30° C. for 5 minutes, 50 μl of 60 μM arachidonic acid was then added and the enzymatic reaction was allowed to proceed at 30° C. for 10 minutes. Thereafter, 200 μl of methanol and 13-hydroxylinolic acid (internal standard) were added and, after sufficient shaking, the mixture was allowed to stand at -20° C. for 30 minutes. The supernatant was collected by centrifugation (12,000 revolutions per minute, 10 minutes). This supernatant was evaporated to dryness under a nitrogen gas stream. To the residue was added 200 μl of 75% aqueous methanol and 100 μl of the resultant solution was subjected to high performance liquid chromatography for the determination of 12-HETE (12-hydroxyeicosapetraenoic acid). 12-HETE was assayed by ultraviolet absorption monitoring at 234 nm. The yield of 12-HETE was calculated from the peak area corrected in comparison with the peak of the internal standard.
IC50 (5-lipoxygenase [1]),IC50 (12-lipoxygenase [2]),IC50 (5-lipoxygenase [4]),Compound,also measured
680 nM,450000 nM,–,"CC1=C(C)C(=O)C(CCCCC#CCCCC#CCO)=C(C)C1=O [AA-861, 2-(12-hydroxy-dodeca-5,10-diynyl)-3,5,6-trimethyl-1,4-benzoquinone, reference compound]","lipoxygenase inhibiting activity (in words) (lipoxygenase): known to have lipoxygenase inhibiting activity; pharmacological activities (in words) [3]: bronchial contraction suppressing, anti-inflammatory, anti-myocardiac infarction and other activities"
–,8800 nM,–,"Cl.NC1=NN(c2cccc(C(F)(F)F)c2)CC1 [BW-755C, 3-amino-1-(3-trifluoromethylphenyl)-2-pyrazoline hydrochloride]",lipoxygenase inhibiting activity (in words) (lipoxygenase): known to have lipoxygenase inhibiting activity; pharmacological activities (in words) [3]: anti-inflammatory and other activities
–,–,10 nM,CCCCCCCCCCCC(=O)NCCCCCN(O)C(=O)CCC(=O)OC [Compound No. 2],IC50 (12-lipoxygenase [5]): 3300 nM
–,–,560 nM,CCCCCCCCCCCC(=O)N(O)CCCCCNCCCC(=O)O [Compound No. 6],–
–,–,52 nM,CCCCCCCCCCCC(=O)N(O)CCCCCNCCCC(=O)OC [Compound No. 7],–
–,–,25 nM,CCCCCCCCCCCC(=O)N(O)CCCCCNC(=O)CC(=O)OCC [Compound No. 8],IC50 (12-lipoxygenase [5]): 12 nM
–,–,54 nM,CCCCCCCCCCCC(=O)N(O)CCCCCNC(=O)CC(=O)OC [Compound No. 9],IC50 (12-lipoxygenase [5]): 11 nM
–,–,270 nM,CCCCCCCCCCCC(=O)N(O)CCCNC(=O)CCC(=O)O [Compound No. 10],IC50 (12-lipoxygenase [5]): 7000 nM
–,–,12 nM,CCCCCCCCCCCC(=O)N(O)CCCNC(=O)CCC(=O)OC [Compound No. 11],–
1870 nM,35 nM,–,CCCCCCCCCCCC(=O)N(O)CCCCCNC(=O)CCC(=O)O [Compound No. 12],–
55 nM,14 nM,–,CCCCCCCCCCCC(=O)N(O)CCCCCNC(=O)CCC(=O)OC [Compound No. 13],–
800 nM,32000 nM,–,CCCCCCCCCCCCCCCCCC(=O)N(O)CCCCCNC(=O)CCC(=O)OC [compound 15],–
470 nM,1000 nM,–,CCCCCCCCCCCCCCCC(=O)N(O)CCCCCNC(=O)CCC(=O)OC [compound 17],–
360 nM,310 nM,–,CCC(C)CCCCCCCCCCC(=O)N(O)CCCCCNC(=O)CCC(=O)OC (stereo not shown) [compound 21],–
300 nM,56 nM,–,COC(=O)CCC(=O)NCCCCCN(O)C(=O)CCCCCCCCCCC(C)C [compound 23],–
190 nM,36 nM,–,CCCCCCCCCCCCC(=O)N(O)CCCCCNC(=O)CCC(=O)OC [compound 24],–
89 nM,33 nM,–,COC(=O)CCC(=O)NCCCCCN(O)C(=O)CCCCCCCCC(C)C [compound 27],–
